SMILES strings stand for the structures. Like-named read-outs stand apart in the source and are kept apart here.

The values that follow come from PMC12011786, “Pharmacokinetics and stability of methoxyflavones from Kaempferia parviflora in Thai native roosters” (Frontiers in Veterinary Science, 2025).

A short description of the data set: Pharmacokinetics of methoxyflavones after single oral administration of KP ethanolic extract in roosters. The data set is classed as in vivo, Thai native roosters (Pradu Hang Dum breed). Particulars: for AUC / Cmax / Tmax / half-life / k el: male, Thai native Pradu Hang Dum, whole blood; for AUC: po; for Cmax / Tmax / half-life / Cl / Vd: n = 9; for k el: n = 9, read-out: Ke (converted). As for the experimental part:
Twenty-seven male Thai native Pradu Hang Dum breed roosters were selected for this study. The sample size was calculated by using the G*power program with the following parameters: α = 0.05, power of test = 0.8, standard deviation = 0.05, and effect size = 0.6. The sample size was nine in each group. […] All animals were obtained from the Research and Development Network Center of Animal Breeding and Omics at Khon Kaen University, Thailand. The roosters were housed in separate cages (60 × 45 × 45 cm) within an open-house system. They were fed a daily commercial diet of 130 g, containing 16% crude protein. Water was provided ad libitum throughout the study.
Blood samples (1 mL) were collected from the brachial vein of each rooster after gentle restraint. The collected blood was immediately transferred into a 1.5 mL microtube containing 10% heparin and gently inverted several times to ensure thorough mixing and prevent clot formation.
The roosters were randomly divided into three groups (n = 9 per group) and orally administered KP extract at different doses: 100, 150, and 200 mg/kg of body weight. The KP extract was prepared by dissolving in a solution of 28% propylene glycol, 35% polyethylene glycol 400, 2% ethanol, and deionized water (added until the total volume was 100%). For the method of animal administration, two individuals administered the KP extract to the chickens. One person restrained each chicken by holding its wings and legs, while the other administered the extract orally via a 10 mL syringe, according to body weight.
After oral administration, blood samples were collected at certain time intervals (0.5, 1, 2, 4, 6, and 12 h). The samples were then stored at −20°C until further analysis.
To extract methoxyflavones from the blood samples, all samples were extracted by liquid–liquid extraction two times using acetonitrile. Each sample was vortexed for 2 min and sonicated for 5 min with 1 mL of acetonitrile. After centrifugation at 2,000 × g for 2 min, the supernatant was transferred to clean microtubes, evaporated to dryness, and reconstituted with 200 μL of methanol. The samples were then filtered through 0.45-μm syringe filters and analyzed using an HPLC assay. Pharmacokinetic parameters were determined using the PKSolver add-in program ([21]).

Setting [1] is: 100 mg/kg, single oral KP extract 100 mg/kg, blood, n = 9, read-out: AUC.
Setting [2] is: 150 mg/kg, single oral KP extract 150 mg/kg, blood, n = 9, read-out: AUC.
[3] abbreviates: 200 mg/kg, range over oral KP extract doses 100, 150, 200 mg/kg, read-out: area under the curve (AUC).
[4] abbreviates: 200 mg/kg, single oral KP extract 200 mg/kg, blood, n = 9, read-out: AUC.
Where [5] appears, read: single oral KP extract 100 mg/kg, blood.
Where [6] appears, read: single oral KP extract 150 mg/kg, blood.
Where [7] appears, read: single oral KP extract 200 mg/kg, blood.

Take `COc1cc(OC)c2c(=O)c(OC)c(-c3ccc(OC)c(OC)c3)oc2c1` [PMF, 3,5,7,3′,4′-pentamethoxyflavone]: the AUC is 2620 ± 340 ng·h/mL under setting [1], 3010 ± 420 ng·h/mL under setting [2], 2620 to 3060 ng·h/mL under setting [3] and 3060 ± 570 ng·h/mL under setting [4]. Further, the Cmax is 640 ± 60 ng/mL under setting [5], 810 ± 120 ng/mL under setting [6] and 830 ± 110 ng/mL under setting [7]. In addition, the Tmax worked out at 1.83 ± 0.37 h under setting [5], 1.8 ± 0.4 h under setting [6] and 1.83 ± 0.37 h under setting [7]. For the same compound, the half-life is, setting by setting: under setting [5], 2.03 ± 0.34 h; under setting [6], 2.24 ± 0.71 h; under setting [7], 2.27 ± 0.93 h. Also, the k el runs as follows: under setting [5], 9.72e-05 s⁻¹; under setting [6], 0.000111 s⁻¹; under setting [7], 0.000114 s⁻¹. Besides, the Cl came to 41 ± 7 mL/min/kg under setting [5], 47.2 ± 12.7 mL/min/kg under setting [6] and 53.7 ± 8.67 mL/min/kg under setting [7]. For the same compound, the Vd is 7.78 ± 0.63 L/kg under setting [5], 8.24 ± 1.14 L/kg under setting [6] and 8.69 ± 1.25 L/kg under setting [7].
For `COc1cc(OC)c2c(=O)cc(-c3ccccc3)oc2c1` [DMF, 5,7-dimethoxyflavone], under setting [1], the AUC turned out to be 1020 ± 230 ng·h/mL. The AUC under setting [2] was 1450 ± 170 ng·h/mL. For the same compound, the AUC under setting [3] lay in the range of 1020 to 1680 ng·h/mL. Moreover, the AUC under setting [4] is 1680 ± 570 ng·h/mL. Also, under setting [5], the Cmax is 340 ± 100 ng/mL, the Tmax was 1.17 ± 0.37 h, the half-life is 2.56 ± 0.49 h and the k el was 7.78e-05 s⁻¹. Under setting [5], this compound came in with a Cl of 137 ± 29.7 mL/min/kg and a Vd of 18.9 ± 1.78 L/kg. Moreover, under setting [6], the Cmax worked out at 500 ± 50 ng/mL, the Tmax is 1.33 ± 0.49 h, the half-life was 2.57 ± 0.2 h and the k el is 8.33e-05 s⁻¹. Under setting [6], this compound registered a Cl of 120 ± 27.7 mL/min/kg and a Vd of 19.1 ± 1.78 L/kg. Further, under setting [7], the concentration peaked (Cmax) at 540 ± 80 ng/mL, the Tmax worked out at 1.17 ± 0.37 h, the half-life was 2.6 ± 0.28 h and the k el is 9.17e-05 s⁻¹. Further, under setting [7], the Cl worked out at 123 ± 36.8 mL/min/kg and the Vd came out at 19.5 ± 2.28 L/kg.
For `COc1ccc(-c2cc(=O)c3c(OC)cc(OC)cc3o2)cc1` [TMF, 5,7,4′-trimethoxyflavone], the AUC under setting [1] worked out at 1200 ± 150 ng·h/mL. The AUC under setting [2] stood at 1360 ± 150 ng·h/mL. Moreover, the AUC under setting [3] is 1200 to 1450 ng·h/mL. Besides, the AUC under setting [4] worked out at 1450 ± 120 ng·h/mL. In addition, under setting [5], the highest level (Cmax) was 380 ± 90 ng/mL, the time of peak concentration (Tmax) was 1.25 ± 0.56 h, the half-life was 2.15 ± 0.71 h and the k el was 8.33e-05 s⁻¹. Under setting [5], the Cl was found to be 76.3 ± 9.83 mL/min/kg and the Vd turned out to be 17.8 ± 5.61 L/kg. Under setting [6], the concentration peaked (Cmax) at 530 ± 60 ng/mL, the Tmax amounted to 1.25 ± 0.4 h, the half-life is 2.01 ± 0.31 h and the k el was 9.44e-05 s⁻¹. Under setting [6], this compound yielded a Cl of 97.3 ± 11.2 mL/min/kg and a Vd of 20 ± 3.32 L/kg. Further, under setting [7], the Cmax was 590 ± 60 ng/mL, the Tmax stood at 1.33 ± 0.47 h, the half-life was 2.03 ± 0.37 h and the k el was 0.000103 s⁻¹. Under setting [7], this compound showed a Cl of 82.5 ± 26.3 mL/min/kg and a Vd of 12.7 ± 1.73 L/kg.

As a reminder, the AUC is concentration integrated over time. In general, Cmax refers to the peak of the concentration-time curve. By Tmax is commonly meant the time at which the peak concentration occurs. By half-life is commonly meant the time in which the quantity being followed falls by half.
